Experimental findings from ChEMBL document CHEMBL1201862, “PubChem BioAssay data set” (2004) are described below.

The structures appear in SMILES notation. The source made the active and inactive calls.

The nature of one experiment: cells. Type of experiment: functional, cell-based.
For experiment [1], the target named is T1, Eukaryotic translation initiation factor 2-alpha kinase 3 (Homo sapiens, UniProt Q9NZJ5).
T1 sequence (Q9NZJ5 whole entry): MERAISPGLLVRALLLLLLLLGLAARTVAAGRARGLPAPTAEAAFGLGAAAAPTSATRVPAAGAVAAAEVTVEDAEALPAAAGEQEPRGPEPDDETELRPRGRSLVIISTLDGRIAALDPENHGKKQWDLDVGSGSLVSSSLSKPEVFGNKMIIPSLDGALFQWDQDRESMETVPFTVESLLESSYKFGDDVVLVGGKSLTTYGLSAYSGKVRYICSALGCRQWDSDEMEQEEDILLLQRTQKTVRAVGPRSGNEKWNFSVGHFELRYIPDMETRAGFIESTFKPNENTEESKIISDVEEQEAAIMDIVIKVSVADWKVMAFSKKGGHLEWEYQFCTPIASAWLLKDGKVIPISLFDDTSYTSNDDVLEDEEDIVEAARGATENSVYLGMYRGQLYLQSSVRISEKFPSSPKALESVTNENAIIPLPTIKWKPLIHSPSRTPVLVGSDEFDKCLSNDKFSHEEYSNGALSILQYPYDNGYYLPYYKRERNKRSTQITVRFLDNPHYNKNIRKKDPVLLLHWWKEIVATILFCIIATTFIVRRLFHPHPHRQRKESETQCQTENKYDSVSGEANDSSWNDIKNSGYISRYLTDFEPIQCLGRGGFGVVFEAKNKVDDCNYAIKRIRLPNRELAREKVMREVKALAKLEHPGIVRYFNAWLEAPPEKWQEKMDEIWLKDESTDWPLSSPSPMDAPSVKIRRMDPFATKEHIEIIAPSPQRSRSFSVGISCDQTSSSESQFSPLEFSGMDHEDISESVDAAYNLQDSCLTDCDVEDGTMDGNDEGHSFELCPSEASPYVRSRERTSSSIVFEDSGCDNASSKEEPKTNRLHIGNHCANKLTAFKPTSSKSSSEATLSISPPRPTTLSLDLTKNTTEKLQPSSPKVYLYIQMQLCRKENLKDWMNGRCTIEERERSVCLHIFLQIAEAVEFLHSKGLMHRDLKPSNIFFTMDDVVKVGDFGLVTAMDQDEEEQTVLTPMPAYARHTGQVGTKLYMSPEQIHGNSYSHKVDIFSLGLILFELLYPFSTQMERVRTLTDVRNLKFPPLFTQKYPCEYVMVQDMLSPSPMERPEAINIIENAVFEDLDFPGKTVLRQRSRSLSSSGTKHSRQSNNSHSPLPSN
Put plainly: Dose response cell-based high-throughput screening assay to measure PERK inhibition. [Related pubchem assays: 1416 ]. Type of experiment: functional.

In experiment [2] the target is T1, Eukaryotic translation initiation factor 2-alpha kinase 3. Put plainly: Counterscreen assay for PERK inhibitors: Dose response cell-based high throughput screening assay to measure inhibition of PERK at 6 hours. [Related pubchem assays: 1522, 1416 ]. It counts as functional. (A counterscreen serves to expose hits that act by an unwanted route or on another target.)

Experiment [3] addresses T2, Tyrosine-protein phosphatase non-receptor type 7 (Homo sapiens, UniProt P35236).
T2 sequence (P35236 whole entry): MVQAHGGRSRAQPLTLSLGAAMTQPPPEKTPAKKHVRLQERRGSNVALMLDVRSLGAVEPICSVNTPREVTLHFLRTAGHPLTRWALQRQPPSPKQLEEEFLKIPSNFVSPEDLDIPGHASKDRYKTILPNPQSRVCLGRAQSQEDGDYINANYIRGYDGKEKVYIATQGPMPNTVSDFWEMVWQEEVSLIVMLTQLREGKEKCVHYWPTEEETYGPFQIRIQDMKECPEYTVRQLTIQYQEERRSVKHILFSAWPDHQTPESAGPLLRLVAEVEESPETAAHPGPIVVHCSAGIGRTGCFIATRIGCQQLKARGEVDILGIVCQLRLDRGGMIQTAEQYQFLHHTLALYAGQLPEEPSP
Type of experiment: functional.

Experiment [4] has as its target T3, Dual specificity protein phosphatase 6 (Rattus norvegicus, UniProt Q64346).
T3 sequence (Q64346 whole entry): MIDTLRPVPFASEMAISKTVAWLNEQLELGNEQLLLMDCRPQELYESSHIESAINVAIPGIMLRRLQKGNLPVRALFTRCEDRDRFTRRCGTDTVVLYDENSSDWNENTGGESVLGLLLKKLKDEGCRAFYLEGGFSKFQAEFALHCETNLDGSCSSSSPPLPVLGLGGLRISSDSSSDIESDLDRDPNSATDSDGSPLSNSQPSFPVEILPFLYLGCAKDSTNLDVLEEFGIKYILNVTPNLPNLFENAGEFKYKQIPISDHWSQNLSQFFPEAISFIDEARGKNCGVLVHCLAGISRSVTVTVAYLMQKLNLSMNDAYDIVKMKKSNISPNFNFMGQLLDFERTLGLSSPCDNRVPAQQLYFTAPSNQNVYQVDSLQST
Type of experiment: functional.

The target in experiment [5] is Glyceraldehyde-3-phosphate dehydrogenase (Homo sapiens, UniProt P04406).
Sequence of Glyceraldehyde-3-phosphate dehydrogenase (P04406 whole entry): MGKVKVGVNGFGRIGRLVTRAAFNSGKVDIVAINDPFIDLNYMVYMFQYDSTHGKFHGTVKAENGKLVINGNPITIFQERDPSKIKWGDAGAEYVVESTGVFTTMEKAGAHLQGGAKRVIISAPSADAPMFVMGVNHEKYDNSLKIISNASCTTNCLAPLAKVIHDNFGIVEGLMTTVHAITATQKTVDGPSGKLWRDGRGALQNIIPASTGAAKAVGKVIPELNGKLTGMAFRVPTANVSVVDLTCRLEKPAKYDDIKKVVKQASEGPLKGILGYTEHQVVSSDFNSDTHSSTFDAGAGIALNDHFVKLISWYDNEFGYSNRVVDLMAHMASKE
Experiment [6] deals with Heat shock 70 kDa protein 1A (Homo sapiens, UniProt P0DMV8). Put plainly: Hsp70 inhibitors, SAR follow-up, biochemical, fluorescence polarization (AID 1072). (In general: Fluorescence polarisation rises when a labelled molecule tumbles more slowly, as on binding a larger partner.)
Sequence of Heat shock 70 kDa protein 1A (P0DMV8 whole entry): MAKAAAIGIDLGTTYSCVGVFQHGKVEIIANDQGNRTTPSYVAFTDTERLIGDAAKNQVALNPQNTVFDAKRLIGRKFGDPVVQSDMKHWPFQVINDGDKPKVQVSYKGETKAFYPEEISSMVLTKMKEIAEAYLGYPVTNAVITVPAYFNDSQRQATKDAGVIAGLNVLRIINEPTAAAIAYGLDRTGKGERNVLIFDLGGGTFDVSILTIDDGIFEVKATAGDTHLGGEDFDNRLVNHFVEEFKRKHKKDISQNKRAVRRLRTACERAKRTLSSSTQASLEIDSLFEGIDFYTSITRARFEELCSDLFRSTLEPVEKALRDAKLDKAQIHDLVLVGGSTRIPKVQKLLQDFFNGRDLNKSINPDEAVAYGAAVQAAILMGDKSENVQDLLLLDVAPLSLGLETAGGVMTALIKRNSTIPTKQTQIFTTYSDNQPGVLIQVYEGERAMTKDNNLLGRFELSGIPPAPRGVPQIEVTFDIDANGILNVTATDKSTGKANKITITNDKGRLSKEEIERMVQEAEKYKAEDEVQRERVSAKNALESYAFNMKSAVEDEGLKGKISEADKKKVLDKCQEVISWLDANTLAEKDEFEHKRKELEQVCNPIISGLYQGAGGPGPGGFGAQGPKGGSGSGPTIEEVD
Experiment [7] addresses T3, Dual specificity protein phosphatase 6.
Experiment [8] deals with Heat shock cognate 71 kDa protein (Homo sapiens, UniProt P11142). Put plainly: In Vitro Hsc70 Dose Response Fluorescence Polarization Assay. [Related pubchem assays: 1072 ].
Sequence of Heat shock cognate 71 kDa protein (P11142 whole entry): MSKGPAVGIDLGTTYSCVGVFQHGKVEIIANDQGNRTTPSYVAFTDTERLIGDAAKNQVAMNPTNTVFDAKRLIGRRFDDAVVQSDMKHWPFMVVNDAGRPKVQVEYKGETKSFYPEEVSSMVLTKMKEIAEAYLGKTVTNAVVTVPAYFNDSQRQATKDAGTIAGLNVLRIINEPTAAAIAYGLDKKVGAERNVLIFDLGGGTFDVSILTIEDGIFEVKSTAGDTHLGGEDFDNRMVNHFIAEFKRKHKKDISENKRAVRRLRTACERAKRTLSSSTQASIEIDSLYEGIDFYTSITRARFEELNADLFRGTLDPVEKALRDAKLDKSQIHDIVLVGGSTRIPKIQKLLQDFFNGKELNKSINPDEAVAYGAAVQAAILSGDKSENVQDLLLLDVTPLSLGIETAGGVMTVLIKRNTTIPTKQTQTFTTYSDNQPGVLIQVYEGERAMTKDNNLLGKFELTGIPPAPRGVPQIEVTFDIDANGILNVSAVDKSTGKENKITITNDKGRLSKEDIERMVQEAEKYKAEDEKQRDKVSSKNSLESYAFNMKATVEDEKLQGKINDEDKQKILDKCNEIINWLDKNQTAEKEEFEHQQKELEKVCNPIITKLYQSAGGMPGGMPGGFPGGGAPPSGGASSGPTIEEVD
Another experiment has as its target Beta-galactosidase (Escherichia coli, UniProt Q8VNN2). Briefly: beta-galactosidase enzyme inhibitors and activators, dose response, artefact control for CCR6 antagonist project, biochemical, E. coli enzyme, set 3 (AID 504712). Type of experiment: functional.
For another experiment, the target named is X-box-binding protein 1 (Homo sapiens, UniProt P17861). Type of experiment: functional, Cricetulus griseus.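 Note: confirmatory dose-response counter-screen serving a CHOP assay.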
In experiment [9] the target is Voltage-dependent T-type calcium channel subunit alpha-1H (Homo sapiens, UniProt O95180). Type of experiment: functional.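 Note: channel activity triggered by adding a high calcium stimulation buffer.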
Sequence of Voltage-dependent T-type calcium channel subunit alpha-1H (O95180 whole entry): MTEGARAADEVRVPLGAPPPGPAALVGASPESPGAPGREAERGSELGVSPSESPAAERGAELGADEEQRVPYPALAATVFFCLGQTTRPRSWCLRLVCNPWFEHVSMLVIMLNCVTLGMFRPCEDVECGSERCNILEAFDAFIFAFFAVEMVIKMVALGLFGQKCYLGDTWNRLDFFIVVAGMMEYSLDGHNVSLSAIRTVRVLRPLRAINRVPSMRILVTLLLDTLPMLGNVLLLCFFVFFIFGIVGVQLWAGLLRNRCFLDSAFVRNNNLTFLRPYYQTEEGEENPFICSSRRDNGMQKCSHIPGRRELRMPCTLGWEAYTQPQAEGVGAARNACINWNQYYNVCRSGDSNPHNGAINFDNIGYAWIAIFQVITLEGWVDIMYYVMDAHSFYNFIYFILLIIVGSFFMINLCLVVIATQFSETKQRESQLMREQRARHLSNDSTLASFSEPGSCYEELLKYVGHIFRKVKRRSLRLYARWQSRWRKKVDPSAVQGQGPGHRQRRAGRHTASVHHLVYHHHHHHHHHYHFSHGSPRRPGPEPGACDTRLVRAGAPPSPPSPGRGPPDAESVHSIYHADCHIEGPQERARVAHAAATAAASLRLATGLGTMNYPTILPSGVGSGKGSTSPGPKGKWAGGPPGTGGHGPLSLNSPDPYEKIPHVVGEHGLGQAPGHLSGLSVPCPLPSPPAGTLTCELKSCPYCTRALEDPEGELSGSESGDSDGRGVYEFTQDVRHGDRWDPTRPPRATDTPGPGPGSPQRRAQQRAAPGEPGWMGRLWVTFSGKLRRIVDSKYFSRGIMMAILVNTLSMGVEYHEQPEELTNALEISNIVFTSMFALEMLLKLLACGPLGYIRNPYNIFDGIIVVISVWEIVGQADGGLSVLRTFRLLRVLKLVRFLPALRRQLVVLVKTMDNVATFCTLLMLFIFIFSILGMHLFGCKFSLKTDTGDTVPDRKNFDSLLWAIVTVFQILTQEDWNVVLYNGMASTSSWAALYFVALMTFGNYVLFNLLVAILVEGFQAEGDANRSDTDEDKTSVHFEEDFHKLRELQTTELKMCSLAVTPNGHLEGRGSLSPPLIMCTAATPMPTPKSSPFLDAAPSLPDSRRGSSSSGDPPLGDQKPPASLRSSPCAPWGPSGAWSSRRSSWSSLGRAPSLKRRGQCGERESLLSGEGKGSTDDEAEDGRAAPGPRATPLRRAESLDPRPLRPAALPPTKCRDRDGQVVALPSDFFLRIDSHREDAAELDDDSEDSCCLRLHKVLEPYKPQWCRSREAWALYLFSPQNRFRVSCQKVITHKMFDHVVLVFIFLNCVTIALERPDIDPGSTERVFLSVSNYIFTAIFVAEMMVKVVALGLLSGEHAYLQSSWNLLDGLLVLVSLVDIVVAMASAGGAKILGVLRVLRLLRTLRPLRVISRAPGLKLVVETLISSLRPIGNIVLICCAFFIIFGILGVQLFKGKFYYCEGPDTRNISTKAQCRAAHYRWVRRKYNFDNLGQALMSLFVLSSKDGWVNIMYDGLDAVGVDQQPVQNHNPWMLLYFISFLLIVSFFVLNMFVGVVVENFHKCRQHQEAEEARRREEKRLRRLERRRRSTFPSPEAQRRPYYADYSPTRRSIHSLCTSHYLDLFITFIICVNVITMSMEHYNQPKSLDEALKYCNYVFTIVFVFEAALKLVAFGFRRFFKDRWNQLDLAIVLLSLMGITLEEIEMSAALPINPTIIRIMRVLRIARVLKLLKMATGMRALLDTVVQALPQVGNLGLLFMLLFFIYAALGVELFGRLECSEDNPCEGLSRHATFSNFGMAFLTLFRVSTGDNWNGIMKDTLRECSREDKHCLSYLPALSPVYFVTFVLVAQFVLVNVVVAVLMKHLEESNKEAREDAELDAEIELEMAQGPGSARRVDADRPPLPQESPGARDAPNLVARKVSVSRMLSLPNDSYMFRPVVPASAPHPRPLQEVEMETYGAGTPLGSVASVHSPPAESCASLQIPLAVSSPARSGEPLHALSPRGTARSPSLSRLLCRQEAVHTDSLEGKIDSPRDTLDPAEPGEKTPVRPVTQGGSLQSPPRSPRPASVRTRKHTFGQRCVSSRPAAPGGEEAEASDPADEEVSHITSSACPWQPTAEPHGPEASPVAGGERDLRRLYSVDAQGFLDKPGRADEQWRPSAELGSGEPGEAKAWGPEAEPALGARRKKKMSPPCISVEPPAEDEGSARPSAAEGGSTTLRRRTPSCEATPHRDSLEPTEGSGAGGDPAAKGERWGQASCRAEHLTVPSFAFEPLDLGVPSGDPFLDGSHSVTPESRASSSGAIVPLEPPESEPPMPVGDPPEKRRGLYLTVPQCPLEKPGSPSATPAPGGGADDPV
In experiment [10] the target is DNA dC->dU-editing enzyme APOBEC-3G (Homo sapiens, UniProt Q9HC16). Put plainly: Dose Response confirmation of small molecule APOBEC3G DNA Deaminase Inhibitors via a fluorescence-based single-stranded DNA deaminase assay. [Related pubchem assays (depositor defined):AID493012, AID493028]. Type of experiment: functional.
Sequence of DNA dC->dU-editing enzyme APOBEC-3G (Q9HC16 whole entry): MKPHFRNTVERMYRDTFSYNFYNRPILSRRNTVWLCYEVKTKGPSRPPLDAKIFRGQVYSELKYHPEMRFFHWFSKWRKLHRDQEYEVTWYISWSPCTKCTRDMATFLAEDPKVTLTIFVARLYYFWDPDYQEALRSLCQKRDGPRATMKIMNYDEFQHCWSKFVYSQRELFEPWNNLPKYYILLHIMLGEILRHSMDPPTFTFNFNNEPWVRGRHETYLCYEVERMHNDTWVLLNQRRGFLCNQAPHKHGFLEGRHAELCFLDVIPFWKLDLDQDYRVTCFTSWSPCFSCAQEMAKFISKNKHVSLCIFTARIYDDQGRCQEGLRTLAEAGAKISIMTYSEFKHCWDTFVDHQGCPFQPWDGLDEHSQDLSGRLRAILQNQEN
The target of the next experiment is Paired box protein Pax-8 (Homo sapiens, UniProt Q06710). Put plainly: inhibitors of PAX8-driven TPO luciferase reporter, dose response, RMG-I cells, cherry-pick (AID 687027).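 Note: luciferase reporter driven by Pax8 target thyroperoxidase promoter measured by SteadyGlo luminescence.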 It counts as functional, cell-based.
For experiment [11], the target named is Eukaryotic translation initiation factor 4H (Homo sapiens, UniProt Q15056). Put plainly: human eIF4H binding inhibitors, primary screen, translation initiation inhibitor project, biochemical, uHTS, fluorescence polarization (AID 2012).
The target in experiment [12] is Polyadenylate-binding protein 1 (Homo sapiens, UniProt P11940). Briefly: PABP poly(A) RNA binding inhibitors, primary screen, biochemical, fluorescence polarization, uHTS (AID 2014).
Sequence of Polyadenylate-binding protein 1 (P11940 whole entry): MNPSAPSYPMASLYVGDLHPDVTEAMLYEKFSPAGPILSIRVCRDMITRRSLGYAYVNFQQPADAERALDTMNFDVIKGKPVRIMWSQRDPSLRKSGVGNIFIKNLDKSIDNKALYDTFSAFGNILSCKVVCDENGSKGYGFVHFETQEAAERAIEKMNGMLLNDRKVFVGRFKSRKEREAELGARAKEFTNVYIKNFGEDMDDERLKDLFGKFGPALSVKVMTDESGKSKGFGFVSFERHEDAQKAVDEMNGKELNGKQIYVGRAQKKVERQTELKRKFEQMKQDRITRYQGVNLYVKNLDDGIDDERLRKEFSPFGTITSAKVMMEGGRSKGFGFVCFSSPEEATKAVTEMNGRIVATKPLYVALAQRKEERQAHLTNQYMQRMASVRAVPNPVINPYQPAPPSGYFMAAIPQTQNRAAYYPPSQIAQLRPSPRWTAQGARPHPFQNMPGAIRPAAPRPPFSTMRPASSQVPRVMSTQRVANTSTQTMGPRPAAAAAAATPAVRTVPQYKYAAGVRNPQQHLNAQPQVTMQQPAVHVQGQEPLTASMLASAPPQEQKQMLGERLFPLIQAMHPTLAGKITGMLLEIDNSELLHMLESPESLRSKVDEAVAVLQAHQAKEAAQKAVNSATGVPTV
For experiment [13], the target named is T4, Endoribonuclease toxin MazF (Escherichia coli K-12, UniProt P0AE70).
T4 sequence (P0AE70 whole entry): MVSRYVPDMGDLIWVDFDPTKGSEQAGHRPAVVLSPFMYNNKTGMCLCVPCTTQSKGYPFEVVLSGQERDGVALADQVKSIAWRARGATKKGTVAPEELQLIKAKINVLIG
Briefly: MazF toxin RNase activators, dose response, biochemical, fluorescence, single-stranded RNA substrate, uHTS hits (AID 588481). Type of experiment: functional.

Experiment [14] in a line: Luminescence Cell-Based Dose Confirmation HTS to Identify Activators of 5'UTR Stem-Loop Driven Alpha-Synuclein mRNA Translation in H4 Neuroglioblastoma Cells. [Related pubchem assays: 1829 (Project Summary), 1814 (Primary HTS)]. It counts as functional.
The target in experiment [15] is T4, Endoribonuclease toxin MazF. Briefly: fluorescent RNA oligo signal without MazF, dose response, counter-screen for MazEF activator project, biochemical, fluorescence, single-stranded RNase substrate (AID 588502). Type of experiment: functional.
For another experiment, the system named is HeLa. Put plainly: HeLa cell cytotoxicity, dose response, cytotoxicity control, 24 h, cherry-picked samples (AID 504726).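 Note: potency for cytotoxicity as loss of luminescence signal.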 It counts as functional, cell-based. Particulars: Homo sapiens.
For another experiment, the system named is H4. Briefly: Luminescence Cell-Based Dose Response HTS to Identify Activators of 5'UTR Stem-Loop Driven Prion Protein mRNA Translation in H4 Neuroglioblastoma Cells. [Related pubchem assays: 1829 (Project Summary), 1814 (Primary HTS)]. It counts as functional. Particulars: Homo sapiens.
Experiment [16] concerns the target T5, Oxysterols receptor LXR-beta (Homo sapiens, UniProt P55055).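 Note: agonist activity at LXR measured by a cell-based luminescence readout across a dose range, run as a counterscreen for daf-12 agonists; HEK293 cells with Gal4-LXR fusion and GAL4-driven luciferase reporter; potency for activation of Gal4-LXR reporter so compounds are agonists.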
T5 sequence (P55055 whole entry): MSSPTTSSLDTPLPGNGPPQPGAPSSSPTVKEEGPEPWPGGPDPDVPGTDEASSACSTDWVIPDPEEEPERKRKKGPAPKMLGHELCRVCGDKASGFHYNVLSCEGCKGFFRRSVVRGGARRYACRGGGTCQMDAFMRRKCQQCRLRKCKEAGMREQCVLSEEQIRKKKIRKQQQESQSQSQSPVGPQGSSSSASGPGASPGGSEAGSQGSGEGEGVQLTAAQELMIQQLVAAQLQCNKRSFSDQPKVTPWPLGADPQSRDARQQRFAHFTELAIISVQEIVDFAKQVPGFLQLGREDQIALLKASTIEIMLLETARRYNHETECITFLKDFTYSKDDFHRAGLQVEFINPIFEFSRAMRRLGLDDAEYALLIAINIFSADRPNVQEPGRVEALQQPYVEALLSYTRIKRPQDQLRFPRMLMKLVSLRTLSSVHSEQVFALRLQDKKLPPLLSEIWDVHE
Type of experiment: functional, cell-based.

Experiment [17] in a line: Luminescence Cell-Based Dose Response HTS to Identify Activators of Luciferase Translation or Activity in H4 […] Cells. [Related pubchem assays: 1829 (Project Summary), 1814 (Primary HTS)]. Type of experiment: functional.

As a reminder, the EC50 is the concentration giving half of the maximal effect. What is called IC50 is the concentration at which inhibition is half-maximal. As usually defined, the AC50 is the concentration at which the activity in the assay is half-maximal.

With `Cc1ccc(-c2cc(N)n(-c3ccc(F)cc3)n2)cc1`, the EC50 was > 350 µM (not active) in the experiment “cells”, > 55.7 µM (not active) in experiment [1] and > 55.7 µM (not active) in experiment [2].

As to `CC(C)COC(=O)c1ccc2c(c1)C1C=CCC1C(C(=O)O)N2` (stereo unspecified), the IC50 in [3] was 44.8 µM (active); in experiment [4] it was 55.8 µM (active); in [5], 87.3 µM (active); in experiment [6], 32.5 µM (active); in [7] it was 48.2 µM (active); in experiment [8], 164 µM (active).

As for `CC(C)c1ccc(O)c(NC(=S)NC(=O)c2ccc3c(c2)OCO3)c1`, the IC50 on Beta-galactosidase is > 66.6 µM (inactive).

Take `CC(C)Cn1c2c(c(=O)[nH]c1=O)C(C(F)(F)F)(C(F)(F)F)NC(CCC1CCCCC1)=N2`: the “Absolute IC50 (XBP1)” value at X-box-binding protein 1 came to 10 µM.

`C[C@@H](C(=O)Nc1ccc2ccccc2c1)[C@@H]1C[C@@]1(C)[C@@H](NC(=O)c1ccccc1)c1ccccc1`: the EC50 in experiment [9] was 2.95 µM (active).

Take `CSc1nc2c(c(=O)[nH]c(=O)n2C)n1Cc1ccc(Cl)cc1`: the IC50 in experiment [10] was 65.2 µM (active).

With `C[C@H](NC(=O)c1ccco1)C(=O)Nc1cccc([N+](=O)[O-])c1`, on Paired box protein Pax-8, the AC50 is 59.2 µM (active). The IC50 in experiment [11] and in [12] was > 100 µM (inactive) throughout.

For the molecule `Oc1[nH]c2ccccc2c1N=Nc1ccccc1F`, the EC50 in [13] is > 99 µM (inactive); in experiment [14], 4.39 µM (active); in experiment [15] it was 31.7 µM (inactive); in the experiment on H4, > 120 µM (not active); in [16] it was > 67.6 µM (inactive); in experiment [17], 8.29 µM (active). In addition, the AC50 in the experiment with HeLa was 100 µM (active).

Regarding `O=c1c2cccc(Cl)c2nc2n1Cc1ccccc1-2`, the EC50 is 23.4 µM (active) in experiment [14], > 120 µM (not active) in the experiment on H4 and 64.2 µM (active) in experiment [17]. The IC50 in [10] was 27.4 µM (active).

In the case of `NS(=O)(=O)c1ccc2c(c1)C1C=CCC1C(C(=O)O)N2` (stereo unspecified), the IC50 in experiment [3] was 47.3 µM (active); in experiment [4] it was > 100 µM (inactive); in experiment [5], 62.2 µM (active); in [6] it was 1.97 µM (active); in experiment [7] it was > 100 µM (inactive); in experiment [8], > 100 µM (not active).

For `CC(C)Cc1cc(C(=O)NCc2cccs2)no1`, the EC50 in experiment [1] and in experiment [2] was > 55.7 µM (not active) each time.

`Cn1cccc1Cc1nnc(SCC(=O)Nc2ccc(F)cc2F)n1-c1ccc(F)cc1`: the EC50 in experiment [9] is 4.6 µM (active).
